According to the NIST ThermoML archive (doi:10.1021/acs.jced.7b01128):
Where “and” joins values, the source holds several entries; their conditions need not be identical. Equal entries are not always repeated. ± gives the expanded uncertainty stated by the source.

What was measured:
[1] = Liquid, Ebulliometric method (Recirculating still)
[2] = refractive index (Na D-line) (dimensionless); conditions: 101.33 kPa, Liquid, Standard Abbe refractometry

CC(C)CCO [3-methylbutan-1-ol]
Conditions | refractive index, 298.15 K | vapor or sublimation pressure, 343.15 K [kPa] | vapor or sublimation pressure, 386.05 K [kPa] | vapor or sublimation pressure, 392.15 K [kPa] | vapor or sublimation pressure, 397.15 K [kPa] | vapor or sublimation pressure, 403.95 K [kPa]
[1] | – | 7.73 ± 0.34 | 53.33 ± 0.51 | 66.66 ± 0.55 | 79.99 ± 0.64 | 101.05 ± 0.67
[2] | 1.403 ± 0.004 | – | – | – | – | –

C1COCCN1 [tetrahydro-1,4-oxazine]
Conditions | refractive index | vapor or sublimation pressure
[1], 343.15 K | – | 13.06 ± 0.3 kPa
[1], 353.15 K | – | 19.73 ± 0.31 kPa
[1], 363.15 K | – | 28.93 ± 0.34 kPa
[1], 372.15 K | – | 39.99 ± 0.38 kPa
[1], 373.15 K | – | 41.32 ± 0.38 kPa
[1], 380.75 K | – | 53.33 ± 0.42 kPa
[1], 383.15 K | – | 57.86 ± 0.48 kPa
[1], 387.55 K | – | 66.66 ± 0.51 kPa
[1], 393.35 K | – | 79.99 ± 0.57 kPa
[1], 393.45 K | – | 79.99 ± 0.57 kPa
[1], 401.15 K | – | 101.05 ± 0.61 kPa and 100.78 ± 0.61 kPa
[2], 293.15 K | 1.455 ± 0.004 | –

CCCCO [butan-1-ol]
Conditions | refractive index, 298.15 K | vapor or sublimation pressure, 353.15 K [kPa] | vapor or sublimation pressure, 363.15 K [kPa] | vapor or sublimation pressure, 366.75 K [kPa] | vapor or sublimation pressure, 373.15 K [kPa] | vapor or sublimation pressure, 379.55 K [kPa] | vapor or sublimation pressure, 383.15 K [kPa] | vapor or sublimation pressure, 384.35 K [kPa] | vapor or sublimation pressure, 390.75 K [kPa]
[1] | – | 21.73 ± 0.36 | 34.13 ± 0.38 | 39.99 ± 0.45 | 51.86 ± 0.49 | 66.66 ± 0.56 | 76.52 ± 0.61 | 79.99 ± 0.64 | 100.78 ± 0.7
[2] | 1.397 ± 0.004 | – | – | – | – | – | – | – | –
